According to US20240189279A1, “IMMUNOMODULATORY COMPOSITIONS AND METHODS OF USE THEREOF” (THE TEXAS A&M UNIVERSITY SYSTEM, priority 2022, published 2024):

Assays:
[1] = test system: liver bile acids; assay: Liver bile acid analysis (targeted LC-MS) in WD mice; assay type: in vivo, mice (male B6 129SF1/J)
Excerpt: Animal experiments. Male B6 129SF1/J mice at 6 weeks of age were obtained from Jackson Laboratories (Bar Harbor, ME). Mice were acclimatized to the animal facility for one week. At the start of the experiment, mice were randomly divided into four groups (n=10 for each group). Three of the four groups were fed ad libitum a Western diet (WD) with 40% Kcal from fat and containing 0.15% cholesterol (D12079B, Research Diets) and a sugar water (SW) solution (23.1 g/L d-fructose+18.9 g/L d-glucose) as previously described (DIAMOND model (15)). After 8 weeks, the three groups of WD-fed mice were randomly selected for treatment with vehicle (WD group) or low (WD-50 group) or high dose (WD-100 group) of […]. The WD group was fed WD and drank sugar water. The WD-50 and WD-100 groups were fed WD and drank sugar water containing, respectively, 50 or 100 mg […] per kg body weight. The treatments were continued for another 8 weeks. Water bottles containing SW and […] or only SW were changed every other day. A fourth group of mice was fed a low-fat control diet (D12450B, Research Diets) and normal water for 16 weeks (CN group) (FIG. 9A). FIG. 9A presents the study design. […] The supernatant was transferred into a new sample tube and analyzed by LC-MS. […] The calculated bile acid concentrations were normalized to the level of spiked internal standard for each sample.

[2] = test system: palmitate and LPS stimulated macrophages; assay: Cytokine production in palmitate and LPS stimulated macrophages; assay type: cell-based
[3] = test system: AMPK; assay: AMPK Western blot analysis of liver tissue of WD mice; assay type: in vivo, mice (male B6 129SF1/J); conditions: week 16; dose-dependent, reverses WD-induced downregulation
Excerpt: Animal experiments. Male B6 129SF1/J mice at 6 weeks of age were obtained from Jackson Laboratories (Bar Harbor, ME). Mice were acclimatized to the animal facility for one week. At the start of the experiment, mice were randomly divided into four groups (n=10 for each group). Three of the four groups were fed ad libitum a Western diet (WD) with 40% Kcal from fat and containing 0.15% cholesterol (D12079B, Research Diets) and a sugar water (SW) solution (23.1 g/L d-fructose+18.9 g/L d-glucose) as previously described (DIAMOND model (15)). After 8 weeks, the three groups of WD-fed mice were randomly selected for treatment with vehicle (WD group) or low (WD-50 group) or high dose (WD-100 group) of […]. The WD group was fed WD and drank sugar water. The WD-50 and WD-100 groups were fed WD and drank sugar water containing, respectively, 50 or 100 mg […] per kg body weight. The treatments were continued for another 8 weeks. Water bottles containing SW and […] or only SW were changed every other day. […] The protein concentration was determined using the BCA protein assay kit (Pierce). […] Proteins were quantified by normalizing the intensity of the protein band of interest to the intensity of the j-actin band in the same lane using the Image Lab software (Bio-Rad, Hercules, CA).

O=C([O-])Cc1c[nH]c2ccccc12.[Na+] [I3A, Indole-3-acetate sodium salt]
liver bile acid profile ([1]; WD-50 group vs WD): did not show any significant changes in liver bile acid profile
liver total bile acids and primary bile acids ([1]; WD-100 group vs WD (WD: reduced total, increased primary bile acids)): showed the opposite trend
production of TNF-α, IL-1β, and MCP-1 [2]: dose-dependently attenuated the production of TNF-α, IL-1β, and MCP-1
liver AMPK and p-AMPK levels [3]: increased both AMPK as well as p-AMPK
